Laboratory results taken from paper PMC10331583, “Control of fibrosis with enhanced safety via asymmetric inhibition of prolyl‐tRNA synthetase 1” (EMBO Molecular Medicine, 2023).
Several values for one entry are separate records, joined by “and”; a condition that tells them apart may be missing. Identical values can stand only once. Like-named read-outs stand apart in the source and are kept apart here.

What was measured:
WI‐26 VA4 cells [1] = assay: Collagen ELISA (secreted pro‐collagen I)
Method: WI‐26 VA4 cells were seeded at 3.5 × 10^4 cells/well on 24 well plates. After 24 h, the cells were starved of serum for 6 h. Then, the cells were incubated with the indicated concentrations of compounds in the presence of TGF‐β (2 ng/ml) (R&D systems, 240‐B‐002) for 72 h. The supernatant of the cells was collected and centrifuged at 500 g for 5 min to remove cell debris. Then, the level of pro‐collagen I in the supernatant was determined using Human Pro‐collagen I alpha 1 DuoSet ELISA (R&D systems, DY6220‐05) and DuoSet ELISA Ancillary Reagent Kit 2 (R&D systems, DY008) following the manufacturer's instructions.

WI‐26 VA4 cells [2] = assay: Puromycin incorporation assay; type: cell-based, human; conditions: for activity at 0.01 µM: WI26VA4, 10 nM; for activity at 0.03 µM: WI26VA4, 30 nM; for activity at 3 µM: WI26VA4, 3000 nM; for activity at 10 µM: WI26VA4, 10000 nM
Method: After being rinsed with cold PBS twice, the cells were collected and resuspended in 200 μl of the carbonate bicarbonate buffer (Sigma Aldrich, C3041‐50CAP) with protease inhibitor. The cell lysates were obtained by sonication and centrifugation at 20,000 g for 15 min at 4°C. After protein quantification using a Pierce™ BCA Protein Assay Kit (Thermo Fisher Scientific, 23225), 400 ng of the proteins was coated to ELISA plates for 18 h at 4°C. […] The plates were rinsed with the washing buffer for three times after each antibody incubation step. […] The amount of puromycin incorporated in proteins was determined by measuring the absorbance at 450 nm (reference wavelength at 620 nm). Experimental values marked in red with strikethrough text in the Figure Source Data file were excluded from the analysis. These values were determined by considering the values of biological and technical replicates under the same condition, as well as the values at the former and later chemical concentrations.

[3] = tested on: TNT Quick Coupled Transcription/Translation System (luciferase synthesis); type: biochemical
[4] = log(inhibitor) vs. response, variable slope (four parameters)
[5] = log(inhibitor) vs. response, variable slope (four parameters), concentration in nM
[6] = Homo sapiens, read-out: Puromycin, % of control, average
[7] = Homo sapiens, read-out: Puromycin, % of control, single replicate

In the case of `O=C(C[C@H]1NCCC[C@@H]1O)Cn1cnc2ccc(-c3cccc(F)c3)cc21` [DWN11251], the activity at 0.03 µM (WI‐26 VA4 cells [1]; Homo sapiens, WI26VA4, read-out: Collagen, % of control, average, 30 nM, average) is reported as 108%, the activity at 0.1 µM (WI‐26 VA4 cells [1]; Homo sapiens, WI26VA4, read-out: Collagen, % of control, average, 100 nM, average) is reported as 90.8% and the activity at 0.3 µM (WI‐26 VA4 cells [1]; Homo sapiens, WI26VA4, read-out: Collagen, % of control, average, 300 nM, average) is reported as 50.1%. For the same compound, the activity at 1 µM (WI‐26 VA4 cells [1]; Homo sapiens, WI26VA4, read-out: Collagen, % of control, average, 1000 nM, average) was 12.4%, the activity at 3 µM (WI‐26 VA4 cells [1]; Homo sapiens, WI26VA4, read-out: Collagen, % of control, average, 3000 nM, average) was 3.27% and the activity at 10 µM (WI‐26 VA4 cells [1]; Homo sapiens, WI26VA4, read-out: Collagen, % of control, average, 10000 nM, average) was 2.46%. The activity at 30 µM (WI‐26 VA4 cells [1]; Homo sapiens, WI26VA4, read-out: Collagen, % of control, average, 30000 nM, average) was 2.88%, the “Collagen HillSlope (best-fit value)” value (WI‐26 VA4 cells [1]; [4]) was -1.623 and the “Collagen LogIC50 (best-fit value)” value (WI‐26 VA4 cells [1]; [5]) was 2.409. For the same compound, the “Relative (CC50)/(collagen IC50)” value (WI‐26 VA4 cells [1]; relative to HF, Fig 5E) was 2.11, the “Puromycin, % of control, single replicate” value (from here on “Puromycin, % of control”) (WI‐26 VA4 cells [2]; 10 nM, 0.01 µM) was 101.25 % of control and 94.41 % of control and 100.93 % of control and 102.37 % of control and 93.16 % of control and 112.99 % of control and 111.09 % of control and 112.68 % of control and the “Puromycin, % of control” value (WI‐26 VA4 cells [2]; 30 nM, 0.03 µM) was 103.89 % of control and 102.07 % of control and 109.54 % of control and 108.35 % of control and 99.59 % of control and 116.49 % of control and 113.07 % of control and 114.50 % of control. For the same compound, the “Puromycin, % of control” value (WI‐26 VA4 cells [2]; 100 nM, 0.1 µM) was 103.01 % of control and 100.87 % of control and 101.28 % of control and 109.49 % of control and 107.49 % of control and 101.40 % of control and 114.53 % of control and 111.00 % of control and 121.31 % of control, the “Puromycin, % of control” value (WI‐26 VA4 cells [2]; 300 nM, 0.3 µM) was 88.40 % of control and 85.23 % of control and 87.58 % of control and 94.28 % of control and 93.99 % of control and 87.62 % of control and 94.72 % of control and 94.55 % of control and 109.57 % of control and the “Puromycin, % of control” value (WI‐26 VA4 cells [2]; 1000 nM, 1 µM) was 106.50 % of control and 101.49 % of control and 107.47 % of control and 104.76 % of control and 102.45 % of control and 95.18 % of control and 122.63 % of control and 109.16 % of control and 107.56 % of control. For the same compound, the “Puromycin, % of control” value (WI‐26 VA4 cells [2]; 3000 nM, 3 µM) was 61.69 % of control and 62.47 % of control and 62.84 % of control and 57.24 % of control, the “Puromycin, % of control” value (WI‐26 VA4 cells [2]; 10000 nM, 10 µM) was 19.53 % of control and 20.29 % of control and 21.78 % of control and 23.63 % of control and 20.64 % of control and 21.23 % of control and 21.73 % of control and 22.58 % of control and the “Puromycin, % of control” value (WI‐26 VA4 cells [2]; 30000 nM, 30 µM) was 0.45 % of control and 0.66 % of control and 0.0147 % of control and 1.69 % of control and 1.62 % of control and 0.33 % of control and 0.81 % of control and 1.20 % of control and -0.12 % of control. It also gave an activity at 0.01 µM (WI‐26 VA4 cells [2]; [6]) of 103%, an activity at 0.01 µM (WI‐26 VA4 cells [2]; [7]) of 99.1% and an activity at 0.03 µM (WI‐26 VA4 cells [2]; [6]) of 108%. The activity at 0.03 µM (WI‐26 VA4 cells [2]; [7]) was 108%, the activity at 0.1 µM (WI‐26 VA4 cells [2]; Homo sapiens, WI26VA4, 100 nM, read-out: Puromycin, % of control, average) was 108% and the activity at 0.3 µM (WI‐26 VA4 cells [2]; Homo sapiens, WI26VA4, 300 nM, read-out: Puromycin, % of control, average) was 92.9%. It also gave an activity at 1 µM (WI‐26 VA4 cells [2]; Homo sapiens, WI26VA4, 1000 nM, read-out: Puromycin, % of control, average) of 106%, an activity at 3 µM (WI‐26 VA4 cells [2]; [6]) of 60.8% and an activity at 3 µM (WI‐26 VA4 cells [2]; [7]) of 59.6%. It also gave an activity at 10 µM (WI‐26 VA4 cells [2]; [6]) of 21.3%, an activity at 10 µM (WI‐26 VA4 cells [2]; [7]) of 20.3% and an activity at 30 µM (WI‐26 VA4 cells [2]; Homo sapiens, WI26VA4, 30000 nM, read-out: Puromycin, % of control, average) of 0.74%. The IC50 (WI‐26 VA4 cells [2]; Homo sapiens, WI26VA4, log(inhibitor) vs. response, variable slope (four parameters), read-out: Puromycin, IC50 (best-fit value)) was 4.24 µM, the “Puromycin, HillSlope (best-fit value)” value (WI‐26 VA4 cells [2]; [4]) was -1.784 and the “Puromycin, LogIC50 (best-fit value)” value (WI‐26 VA4 cells [2]; [5]) was 3.627. The “TNT-luciferase % of control” value ([3]; 60 nM, Experiment #1, replicates, 0.06 µM) was 107.20 % of control and 104.88 % of control and 105.66 % of control, the “TNT-luciferase % of control” value ([3]; 60 nM, Experiment #2, replicates, 0.06 µM) was 114.45 % of control and 123.12 % of control and 122.25 % of control and the “TNT-luciferase % of control, average” value ([3]; 60 nM) was 112.93 % of control. The “TNT-luciferase % of control” value ([3]; 200 nM, Experiment #1, replicates, 0.2 µM) was 108.74 % of control and 107.20 % of control and 111.83 % of control, the “TNT-luciferase % of control” value ([3]; 200 nM, Experiment #2, replicates, 0.2 µM) was 104.91 % of control and 109.25 % of control and 124.86 % of control and the “TNT-luciferase % of control, average” value ([3]; 200 nM) was 111.13 % of control. The “TNT-luciferase % of control” value ([3]; 600 nM, Experiment #1, replicates, 0.6 µM) was 114.14 % of control and 111.05 % of control and 117.22 % of control, the “TNT-luciferase % of control” value ([3]; 600 nM, Experiment #2, replicates, 0.6 µM) was 98.84 % of control (2×) and 100.58 % of control and the “TNT-luciferase % of control, average” value ([3]; 600 nM) was 106.78 % of control. For the same compound, the “TNT-luciferase % of control” value ([3]; 2000 nM, Experiment #1, replicates, 2 µM) was 91.77 % of control (2×) and 97.94 % of control, the “TNT-luciferase % of control” value ([3]; 2000 nM, Experiment #2, replicates, 2 µM) was 83.24 % of control and 92.77 % of control and 96.24 % of control and the “TNT-luciferase % of control, average” value ([3]; 2000 nM) was 92.29 % of control. For the same compound, the “TNT-luciferase % of control” value ([3]; 6000 nM, Experiment #1, replicates, 6 µM) was 60.77 % of control and 59.00 % of control and 60.23 % of control, the “TNT-luciferase % of control” value ([3]; 6000 nM, Experiment #2, replicates, 6 µM) was 57.75 % of control and 61.56 % of control and 58.87 % of control and the “TNT-luciferase % of control, average” value ([3]; 6000 nM) was 59.70 % of control. For the same compound, the “TNT-luciferase % of control” value ([3]; 20000 nM, Experiment #1, replicates, 20 µM) was 9.64 % of control and 9.49 % of control and 10.87 % of control, the “TNT-luciferase % of control” value ([3]; 20000 nM, Experiment #2, replicates, 20 µM) was 9.97 % of control and 10.14 % of control and 11.01 % of control and the “TNT-luciferase % of control, average” value ([3]; 20000 nM) was 10.19 % of control. The “TNT-luciferase % of control” value ([3]; 60000 nM, Experiment #1, replicates, 60 µM) was 0.32 % of control and 0.35 % of control and 0.31 % of control, the “TNT-luciferase % of control” value ([3]; 60000 nM, Experiment #2, replicates, 60 µM) was 0.26 % of control and 0.27 % of control and 0.30 % of control and the “TNT-luciferase % of control, average” value ([3]; 60000 nM) was 0.30 % of control. The “TNT-luciferase % of control” value ([3]; 200000 nM, Experiment #1, replicates, 200 µM) was 0.0123 % of control and 0.00453 % of control and 0.000979 % of control, the “TNT-luciferase % of control” value ([3]; 200000 nM, Experiment #2, replicates, 200 µM) was 0.0176 % of control and 0.0228 % of control and 0.0243 % of control and the “TNT-luciferase % of control, average” value ([3]; 200000 nM) was 0.0137 % of control. The “TNT-luciferase LogIC50 (best-fit value)” value [3, 5] was 3.802 and the IC50 ([3]; log(inhibitor) vs. response, variable slope (four parameters), unit from head concentration (nM), read-out: TNT-luciferase IC50 (best-fit value)) was 6340 nM.
